≈ marks a conversion by molar mass, not a printed value.
What was measured:
[1] = test system: Pseudomonas aeruginosa; assay: Antibacterial activity against Pseudomonas aeruginosa PAO1 under muller hinton medium by CLSI protocol based microdilution method; format: functional
[2] = test system: Pseudomonas aeruginosa; assay: Antibacterial activity against Pseudomonas aeruginosa PAO1 under succinate minimum medium by CLSI protocol based microdilution method; format: functional
[3] = test system: Pseudomonas aeruginosa; assay: Antibacterial activity against Pseudomonas aeruginosa PAO1 under 1 uM FeCl3 medium by CLSI protocol based microdilution method; format: functional
[4] = test system: Pseudomonas aeruginosa; assay: Antibacterial activity against Pseudomonas aeruginosa PAD07 under muller hinton medium by CLSI protocol based microdilution method; format: functional
[5] = test system: Pseudomonas aeruginosa; assay: Antibacterial activity against Pseudomonas aeruginosa PAD07 under succinate minimum medium by CLSI protocol based microdilution method; format: functional
[6] = test system: Pseudomonas aeruginosa; assay: Antibacterial activity against Pseudomonas aeruginosa PAD07 under 1 uM FeCl3 medium by CLSI protocol based microdilution method; format: functional
[7] = test system: Pseudomonas aeruginosa; assay: Antibacterial activity against Pseudomonas aeruginosa AM85 under muller hinton medium by CLSI protocol based microdilution method; format: functional
[8] = test system: Pseudomonas aeruginosa; assay: Antibacterial activity against Pseudomonas aeruginosa AM85 under succinate minimum medium by CLSI protocol based microdilution method; format: functional
[9] = test system: Pseudomonas aeruginosa; assay: Antibacterial activity against Pseudomonas aeruginosa AM85 under 1 uM FeCl3 medium by CLSI protocol based microdilution method; format: functional
[10] = test system: Burkholderia pseudomallei; assay: Antibacterial activity against Burkholderia pseudomallei BPS2020IRBA001 under muller hinton medium by CLSI protocol based microdilution method; format: functional
[11] = test system: Burkholderia pseudomallei; assay: Antibacterial activity against Burkholderia pseudomallei BPS2020IRBA001 under succinate minimum medium by CLSI protocol based microdilution method; format: functional
[12] = test system: Burkholderia pseudomallei; assay: Antibacterial activity against Burkholderia pseudomallei BPS2020IRBA001 under 1 uM FeCl3 medium by CLSI protocol based microdilution method; format: functional
[13] = test system: Burkholderia pseudomallei; assay: Antibacterial activity against Burkholderia pseudomallei BPS2020IRBA002 under muller hinton medium by CLSI protocol based microdilution method; format: functional
[14] = test system: Burkholderia pseudomallei; assay: Antibacterial activity against Burkholderia pseudomallei BPS2020IRBA002 under 1 uM FeCl3 medium by CLSI protocol based microdilution method; format: functional
[15] = test system: Burkholderia pseudomallei; assay: Antibacterial activity against Burkholderia pseudomallei K96243 under muller hinton medium by CLSI protocol based microdilution method; format: functional
[16] = test system: Burkholderia pseudomallei; assay: Antibacterial activity against Burkholderia pseudomallei K96243 under 1 uM FeCl3 medium by CLSI protocol based microdilution method; format: functional
[17] = test system: Burkholderia pseudomallei; assay: Antibacterial activity against Burkholderia pseudomallei BPS2020IRBA003 under muller hinton medium by CLSI protocol based microdilution method; format: functional
[18] = test system: Burkholderia pseudomallei; assay: Antibacterial activity against Burkholderia pseudomallei BPS2020IRBA003 under succinate minimum medium by CLSI protocol based microdilution method; format: functional
[19] = test system: Burkholderia pseudomallei; assay: Antibacterial activity against Burkholderia pseudomallei BPS2020IRBA003 under 1 uM FeCl3 medium by CLSI protocol based microdilution method; format: functional
[20] = test system: Burkholderia pseudomallei; assay: Antibacterial activity against Burkholderia pseudomallei BPS2020IRBA004 under muller hinton medium by CLSI protocol based microdilution method; format: functional
[21] = test system: Burkholderia pseudomallei; assay: Antibacterial activity against Burkholderia pseudomallei BPS2020IRBA005 under muller hinton medium by CLSI protocol based microdilution method; format: functional
[22] = test system: Burkholderia thailandensis; assay: Antibacterial activity against Burkholderia thailandensis E264 under muller hinton medium by CLSI protocol based microdilution method; format: functional
[23] = test system: Burkholderia thailandensis; assay: Antibacterial activity against Burkholderia thailandensis E264 under succinate minimum medium by CLSI protocol based microdilution method; format: functional
[24] = test system: Burkholderia thailandensis; assay: Antibacterial activity against Burkholderia thailandensis E264 under 1 uM FeCl3 medium by CLSI protocol based microdilution method; format: functional
[25] = test system: Burkholderia thailandensis; assay: Antibacterial activity against Burkholderia thailandensis E264TS32C10 under muller hinton medium by CLSI protocol based microdilution method; format: functional
[26] = test system: Burkholderia thailandensis; assay: Antibacterial activity against Burkholderia thailandensis E264TS32C10 under 1 uM FeCl3 medium by CLSI protocol based microdilution method; format: functional
[27] = test system: Burkholderia thailandensis; assay: Antibacterial activity against Burkholderia thailandensis E264TS32C12 under muller hinton medium by CLSI protocol based microdilution method; format: functional
[28] = test system: Burkholderia thailandensis; assay: Antibacterial activity against Burkholderia thailandensis E264TS32C12 under succinate minimum medium by CLSI protocol based microdilution method; format: functional
[29] = test system: Burkholderia thailandensis; assay: Antibacterial activity against Burkholderia thailandensis E264TS32C12 under 1 uM FeCl3 medium by CLSI protocol based microdilution method; format: functional
[30] = test system: Burkholderia thailandensis; assay: Antibacterial activity against Burkholderia thailandensis E264TS32C47 under muller hinton medium by CLSI protocol based microdilution method; format: functional
[31] = test system: Burkholderia thailandensis; assay: Antibacterial activity against Burkholderia thailandensis E264TS32C47 under succinate minimum medium by CLSI protocol based microdilution method; format: functional
[32] = test system: Burkholderia thailandensis; assay: Antibacterial activity against Burkholderia thailandensis E264TS32C47 under 1 uM FeCl3 medium by CLSI protocol based microdilution method; format: functional
[33] = test system: Burkholderia pseudomallei; assay: Antibacterial activity against Burkholderia pseudomallei BPS2020IRBA002 under succinate minimum medium after 48 hrs by CLSI protocol based microdilution method; format: functional
[34] = test system: Burkholderia pseudomallei; assay: Antibacterial activity against Burkholderia pseudomallei K96243 under succinate minimum medium after 48 hrs by CLSI protocol based microdilution method; format: functional
[35] = test system: Burkholderia pseudomallei; assay: Antibacterial activity against Burkholderia pseudomallei BPS2020IRBA005 under succinate minimum medium after 48 hrs by CLSI protocol based microdilution method; format: functional
[36] = test system: Burkholderia pseudomallei; assay: Antibacterial activity against Burkholderia pseudomallei BPS2020IRBA005 under 1 uM FeCl3 medium after 48 hrs by CLSI protocol based microdilution method; format: functional
[37] = test system: Burkholderia thailandensis; assay: Antibacterial activity against Burkholderia thailandensis E264TS32C10 under succinate minimum medium after 48 hrs by CLSI protocol based microdilution method; format: functional
[38] = test system: HepG2; assay: Cytotoxicity against human HepG2 cells at 28 ug/ml after 48 hrs by CellTiter-Glo luminescent cell viability assay; format: toxicity, cell-based; conditions: hepg2, 48 h, dose 28 µg/ml
[39] = test system: Lipid bilayer; assay: Binding affinity to bacterial inner membrane mimic PE/PG/CL/PC (60:20:10:10) assessed as maximum insertion pressure
[40] = test system: Lipopolysaccharide (LPS); assay: Binding affinity to Pseudomonas aeruginosa lipopolysaccharide assessed as maximum insertion pressure
[41] = Stability in aqueous solution after 1 months; format: physicochemical; conditions: buffer, 730 h

Compound: CC(OC(=O)c1cccc(O)c1O)OC(=O)N1CCN(c2cc3c(cc2F)c(=O)c(C(=O)O)cn3C2CC2)CC1 (stereo unspecified)
- MIC [1]: 1 µg/mL (≈ 1.8 µM)
- MIC [2]: 1 µg/mL (≈ 1.8 µM)
- MIC [3]: 1 µg/mL (≈ 1.8 µM)
- MIC [4]: 0.25 µg/mL (≈ 0.45 µM)
- MIC [5]: 0.25 µg/mL (≈ 0.45 µM)
- MIC [6]: 2 µg/mL (≈ 3.6 µM)
- MIC [7]: > 128 µg/mL
- MIC [8]: > 128 µg/mL
- MIC [9]: > 128 µg/mL
- MIC [10]: 128 µg/mL (≈ 230 µM)
- MIC [11]: 2 µg/mL (≈ 3.6 µM)
- MIC [12]: 32 µg/mL (≈ 57.6 µM)
- MIC [13]: 32 µg/mL (≈ 57.6 µM)
- MIC [14]: 8 µg/mL (≈ 14.4 µM)
- MIC [15]: 8 µg/mL (≈ 14.4 µM)
- MIC [16]: 4 µg/mL (≈ 7.2 µM)
- MIC [17]: 32 µg/mL (≈ 57.6 µM)
- MIC [18]: 8 µg/mL (≈ 14.4 µM)
- MIC [19]: 16 µg/mL (≈ 28.8 µM)
- MIC [20]: 32 µg/mL (≈ 57.6 µM)
- MIC [21]: 128 µg/mL (≈ 230 µM)
- MIC [22]: 32 µg/mL (≈ 57.6 µM)
- MIC [23]: 8 µg/mL (≈ 14.4 µM)
- MIC [24]: 8 µg/mL (≈ 14.4 µM)
- MIC [25]: > 128 µg/mL
- MIC [26]: 32 µg/mL (≈ 57.6 µM)
- MIC [27]: 64 µg/mL (≈ 115 µM)
- MIC [28]: 4 µg/mL (≈ 7.2 µM)
- MIC [29]: 16 µg/mL (≈ 28.8 µM)
- MIC [30]: 32 µg/mL (≈ 57.6 µM)
- MIC [31]: 4 µg/mL (≈ 7.2 µM)
- MIC [32]: 8 µg/mL (≈ 14.4 µM)
- MIC [33]: 8 µg/mL (≈ 14.4 µM)
- MIC [34]: 2 µg/mL (≈ 3.6 µM)
- MIC [35]: 8 µg/mL (≈ 14.4 µM)
- MIC [36]: 16 µg/mL (≈ 28.8 µM)
- MIC [37]: 32 µg/mL (≈ 57.6 µM)
- Activity [38]: Non-Toxic
- Activity [39]: 44 mN/meter
- Activity [40]: 30 mN/meter
- Stability [41]: Stable
